Measured values published in patent US20140135310A1, “SULPHONAMIDE DERIVATIVES OF ALICYCLIC AMINES FOR THE TREATMENT OF CENTRAL NERVOUS SYSTEM DISEASES” (Adamed Sp. z o.o., priority 2011, published 2014).

What was measured:
[1] = target: dopaminergic receptors D3 (Homo sapiens, UniProt P35462); assay: Radioligand binding assay, dopaminergic D3 receptors; conditions: test compound 1×10^−6 M
Method in brief: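 Competition radioligand binding at human D2, D3 and D4.4 receptors, detected by scintillation counting; nonspecific binding defined with excess unlabelled ligand. Results as percent inhibition of control specific binding; IC50 by Hill-equation nonlinear regression; Ki via Cheng-Prusoff, with radioligand KD from Scatchard plot.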

[2] = system: α1 adrenergic receptors (rat cerebral cortex); assay: Radioligand binding assay, adrenergic α1 receptors; conditions: test compound 1×10^−6 M
Method in brief: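 Values derive from radioligand displacement, with non-specific binding defined by excess cold ligand and detection by scintillation. Hill-fit IC50s were converted to Ki via Cheng-Prusoff using Scatchard-derived Kd; percent inhibition of control specific binding also reported.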

5-HT2A receptor = target: T1, 5-HT2A receptor (Homo sapiens, UniProt P28223); assay: Radioligand binding assay, serotoninergic 5-HT2A receptors; conditions: binding assay result in %, Table 5a
T1 construct: purchased PerkinElmer
T1 sequence (P28223 whole entry): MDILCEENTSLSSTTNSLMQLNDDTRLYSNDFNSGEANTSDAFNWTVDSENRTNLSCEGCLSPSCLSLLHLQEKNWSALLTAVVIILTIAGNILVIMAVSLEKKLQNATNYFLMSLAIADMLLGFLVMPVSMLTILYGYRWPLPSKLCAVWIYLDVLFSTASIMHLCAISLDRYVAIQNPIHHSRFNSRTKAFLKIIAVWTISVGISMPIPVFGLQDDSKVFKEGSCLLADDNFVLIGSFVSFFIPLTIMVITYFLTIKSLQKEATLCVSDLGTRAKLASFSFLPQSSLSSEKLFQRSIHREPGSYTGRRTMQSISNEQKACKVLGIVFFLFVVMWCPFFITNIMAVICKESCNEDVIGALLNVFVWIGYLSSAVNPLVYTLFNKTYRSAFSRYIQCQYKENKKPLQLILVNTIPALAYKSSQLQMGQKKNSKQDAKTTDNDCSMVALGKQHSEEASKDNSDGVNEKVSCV
Method in brief: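 Radioligand competition binding with scintillation counting; nonspecific binding defined by excess unlabelled ligand. Data as percent inhibition of control specific binding. IC50 by Hill-equation fit of competition curves; Ki by Cheng-Prusoff, with radioligand Kd from Scatchard plot.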

5-HT6 receptor = target: T2, 5-HT6 receptor (Homo sapiens, UniProt P50406); assay: Radioligand binding assay, serotoninergic 5-HT6 receptors; conditions: binding assay result in %, Table 5a;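 also: test compound at 1 µM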
T2 construct: purchased PerkinElmer
T2 sequence (P50406 whole entry): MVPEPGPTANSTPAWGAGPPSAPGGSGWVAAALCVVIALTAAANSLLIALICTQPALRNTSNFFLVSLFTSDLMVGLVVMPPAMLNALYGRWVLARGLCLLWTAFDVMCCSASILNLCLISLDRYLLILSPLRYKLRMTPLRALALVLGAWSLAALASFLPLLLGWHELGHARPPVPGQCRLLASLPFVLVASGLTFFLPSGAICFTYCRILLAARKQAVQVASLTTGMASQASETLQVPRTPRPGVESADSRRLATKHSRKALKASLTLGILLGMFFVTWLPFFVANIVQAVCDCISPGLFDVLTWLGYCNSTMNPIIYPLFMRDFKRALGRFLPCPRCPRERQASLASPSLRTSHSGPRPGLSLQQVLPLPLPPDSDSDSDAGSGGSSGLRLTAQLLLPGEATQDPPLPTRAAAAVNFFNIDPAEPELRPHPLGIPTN
Method in brief: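 Values are Ki from Cheng–Prusoff, taking IC50 from Hill nonlinear regression of competition curves and KD from a Scatchard plot. Specific binding was total minus binding with excess unlabelled ligand. Radioligand displacement was detected by scintillation counting, and data were also reported as percent of control specific binding.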

5-HT7 receptor = target: T3, 5-HT7 receptor (Homo sapiens, UniProt P34969); assay: Radioligand binding assay, serotoninergic 5-HT7 receptors; conditions: binding assay result in %, Table 5a;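 also: test compound at 1 µM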
T3 construct: purchased PerkinElmer
T3 sequence (P34969 whole entry): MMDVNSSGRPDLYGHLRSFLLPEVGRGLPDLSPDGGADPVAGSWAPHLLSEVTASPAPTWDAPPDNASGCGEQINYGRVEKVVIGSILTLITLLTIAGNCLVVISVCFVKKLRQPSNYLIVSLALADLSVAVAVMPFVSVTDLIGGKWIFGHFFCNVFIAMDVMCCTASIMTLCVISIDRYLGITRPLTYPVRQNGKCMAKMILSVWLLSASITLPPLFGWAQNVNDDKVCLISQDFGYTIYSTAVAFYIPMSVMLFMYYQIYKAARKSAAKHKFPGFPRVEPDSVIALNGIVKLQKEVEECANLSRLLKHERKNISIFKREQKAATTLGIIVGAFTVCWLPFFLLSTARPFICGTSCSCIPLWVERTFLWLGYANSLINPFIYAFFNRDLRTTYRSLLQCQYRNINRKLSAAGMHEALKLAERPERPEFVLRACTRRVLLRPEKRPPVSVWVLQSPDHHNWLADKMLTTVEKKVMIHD
Method in brief: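 Competition binding at human 5-HT7 receptors with a radioligand, detected by scintillation counting; non-specific binding was defined with excess unlabelled ligand. IC50 came from Hill-equation fits of competition curves, and Ki from Cheng–Prusoff using radioligand concentration and Scatchard-derived KD.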

[3] = target: T4, 5-HT1A receptor (rat hippocampus) (Rattus norvegicus, UniProt P19327); assay: Radioligand binding assay, serotoninergic 5-HT1A receptors; conditions: binding assay result in %, Table 5a;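 also: test compound at 1 µM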
T4 construct: hippocampus; from tissue; host or cells: rat hippocampus
T4 sequence (P19327 1-422): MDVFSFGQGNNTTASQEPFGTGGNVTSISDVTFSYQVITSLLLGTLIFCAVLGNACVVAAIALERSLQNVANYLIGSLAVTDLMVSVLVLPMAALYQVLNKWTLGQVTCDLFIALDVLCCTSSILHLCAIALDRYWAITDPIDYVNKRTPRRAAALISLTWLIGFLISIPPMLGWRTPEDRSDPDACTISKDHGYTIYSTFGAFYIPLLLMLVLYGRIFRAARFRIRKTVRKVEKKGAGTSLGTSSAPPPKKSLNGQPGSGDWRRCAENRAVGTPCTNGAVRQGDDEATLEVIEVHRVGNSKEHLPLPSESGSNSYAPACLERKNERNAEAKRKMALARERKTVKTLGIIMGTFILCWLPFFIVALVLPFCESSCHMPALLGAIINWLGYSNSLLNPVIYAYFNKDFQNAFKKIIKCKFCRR

[4] = target: T5, serotonin transporter (SERT) (Homo sapiens, UniProt P31645); assay: Radioligand binding assay, serotonin transporter (SERT); conditions: binding assay, test compound 1×10^−6 M
T5 construct: expressed in transfected cells; host or cells: CHO cells
T5 sequence (P31645 whole entry): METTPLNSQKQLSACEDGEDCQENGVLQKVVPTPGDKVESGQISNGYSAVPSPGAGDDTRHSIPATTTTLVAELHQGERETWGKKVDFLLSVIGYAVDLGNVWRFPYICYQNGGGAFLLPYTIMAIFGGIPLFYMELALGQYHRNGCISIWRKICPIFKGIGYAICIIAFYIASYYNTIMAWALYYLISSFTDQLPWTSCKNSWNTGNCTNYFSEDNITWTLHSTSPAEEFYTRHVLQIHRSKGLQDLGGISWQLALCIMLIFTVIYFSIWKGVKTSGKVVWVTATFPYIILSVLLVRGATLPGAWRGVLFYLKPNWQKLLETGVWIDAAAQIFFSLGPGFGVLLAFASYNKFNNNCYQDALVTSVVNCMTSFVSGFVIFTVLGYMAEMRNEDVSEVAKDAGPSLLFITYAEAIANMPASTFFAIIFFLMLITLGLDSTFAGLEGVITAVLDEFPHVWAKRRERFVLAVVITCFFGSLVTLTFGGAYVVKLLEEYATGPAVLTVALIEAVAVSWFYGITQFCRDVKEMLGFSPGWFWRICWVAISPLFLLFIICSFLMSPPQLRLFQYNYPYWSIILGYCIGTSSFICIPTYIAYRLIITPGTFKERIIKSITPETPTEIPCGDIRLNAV
Method in brief: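 Radioligand competition binding with scintillation detection; specific binding is total minus binding under excess unlabelled ligand. Reported as % of control specific binding or % inhibition; IC50 from Hill-equation non-linear regression of competition curves, and Ki via Cheng-Prusoff using radioligand concentration and Scatchard-derived KD.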

[5] = target: dopaminergic receptors D2 (Homo sapiens, UniProt P14416); assay: Radioligand binding assay, dopaminergic D2 receptors; conditions: binding assay, test compound 1×10^−6 M
Sequence of dopaminergic receptors D2 (P14416 whole entry): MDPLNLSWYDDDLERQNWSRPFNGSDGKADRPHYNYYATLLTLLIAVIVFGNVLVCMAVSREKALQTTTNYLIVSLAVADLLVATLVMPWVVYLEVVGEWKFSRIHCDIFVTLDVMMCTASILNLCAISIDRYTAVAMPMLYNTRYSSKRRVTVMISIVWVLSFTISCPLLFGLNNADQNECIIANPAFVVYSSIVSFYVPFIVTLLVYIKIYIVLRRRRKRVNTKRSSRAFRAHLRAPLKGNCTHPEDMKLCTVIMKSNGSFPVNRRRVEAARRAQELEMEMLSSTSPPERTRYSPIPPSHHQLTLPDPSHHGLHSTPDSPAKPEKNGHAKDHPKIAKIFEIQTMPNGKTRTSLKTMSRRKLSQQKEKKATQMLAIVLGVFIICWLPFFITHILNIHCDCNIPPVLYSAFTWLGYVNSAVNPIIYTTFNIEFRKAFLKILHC
Method in brief: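 Competition binding with scintillation counting of bound radioligand; specific binding taken as total minus non-specific binding measured with excess unlabelled ligand. IC50 obtained by Hill-equation non-linear regression of replicate-mean curves, then converted to Ki via Cheng–Prusoff using radioligand concentration and Scatchard-derived KD.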

Sequence of dopaminergic receptors D3 (P35462 whole entry): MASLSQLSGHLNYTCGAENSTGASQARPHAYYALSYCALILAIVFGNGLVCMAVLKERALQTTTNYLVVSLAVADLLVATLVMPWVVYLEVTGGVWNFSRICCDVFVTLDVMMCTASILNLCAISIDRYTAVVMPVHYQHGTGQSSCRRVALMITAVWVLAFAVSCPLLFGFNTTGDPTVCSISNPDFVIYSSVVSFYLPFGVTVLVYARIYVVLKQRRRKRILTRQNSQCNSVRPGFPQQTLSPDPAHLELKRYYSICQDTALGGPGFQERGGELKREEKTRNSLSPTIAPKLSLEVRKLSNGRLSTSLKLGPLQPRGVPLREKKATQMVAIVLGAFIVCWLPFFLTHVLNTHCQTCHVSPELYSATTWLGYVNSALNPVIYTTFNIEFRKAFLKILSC

Compound | D3 [%] [1] [%] | α1 [%] [2] [%] | 5-HT2A [%] (5-HT2A receptor) | 5-HT6 [%] (5-HT6 receptor) | 5-HT7 [%] (5-HT7 receptor) | 5-HT1A [%] [3] [%] | SERT [%] [4] [%] | D2 [%] [5] [%] | inhibition at 1 µM [1] [%] | inhibition at 1 µM (5-HT2A receptor) [%] | inhibition at 1 µM (5-HT6 receptor) [%] | inhibition at 1 µM (5-HT7 receptor) [%] | inhibition at 1 µM [3] [%] | inhibition at 1 µM [4] [%] | inhibition at 1 µM [5] [%]
O=S(=O)(NC1CCN(CCOc2cccc3c2OCCO3)C1)c1ccccc1 (stereo not drawn) [Compound 96, N-[1-[2-(2,3-Dihydro-1,4-benzodioxan-8-yloxy)ethyl]pyrrolidin-3-yl]-benzenesulphonamide] | 56 | 60 | 93 | 5 | 98 | 92 | 11 | 46 | – | – | – | – | – | – | –
O=S(=O)(NC1CCN(CCOc2cccc3[nH]ccc23)CC1)c1cccc2ccccc12 [Compound 60, N-[1-[2-(1H-Indol-4-yloxy)ethyl]-4-piperidine]naphthalene-1-sulphonamide] | 102 | 87 | 76 | 69 | 96 | 85 | 21 | 41 | – | – | – | – | – | – | –
O=S(=O)(NC1CCN(CCCc2noc3cc(F)ccc23)C1)c1ccc2c(c1)OCO2 (stereo not drawn) [Compound 194, N-[1-[3-(6-Fluoro-1,2-benzoxazol-3-yl)propyl]pyrrolidin-3-yl]-1,3-benzo-dioxole-5-sulphonamide] | – | 96 | – | – | – | – | – | – | 48 | 29 | 53 | 82 | 63 | 1 | 19
O=S(=O)(NC1CCN(CCOc2cccc3[nH]ccc23)C1)c1ccccc1 (stereo not drawn) [Compound 51, N-[1-[2-(1H-Indol-4-yloxy)ethyl]pyrrolidin-3-yl]benzenesulphonamide] | – | 77 | – | – | – | – | – | – | 103 | 67 | 10 | 101 | 91 | 6 | 54
Cc1c(S(=O)(=O)NCC2CCN(CCOc3cccc4ccccc34)C2)sc2ccc(F)cc12 (stereo not drawn) [Compound 271, 5-Fluoro-3-methyl-N-[[1-[2-(1-naphthyloxy)ethyl]pyrrolidin-3-yl]methyl]benzothiophene-2-sulphonamide] | – | −1 | – | – | – | – | – | – | 93 | 97 | 76 | 104 | 82 | 40 | 45
O=S(=O)(NCC1CN(CCOc2cccc3ccccc23)C1)c1cc2ccccc2s1 [Compound 163, N-[[1-[2-(1-Naphthyloxy)ethyl]azetidin-3-yl]methyl]benzothiophene-2-sulphonamide] | – | 27 | – | – | – | – | – | – | 99 | 99 | 87 | 88 | 88 | 45 | 73
3,4-Dichloro-N-[1-[3-(6-fluoro-1,2-benzoxazol-3-yl)propyl]pyrrolidin-3-yl]benzenesulphonamide [Compound 211] | 63 | 90 | 100 | 92 | 107 | 32 | 4 | 93 | – | – | – | – | – | – | –
Cc1cccc(S(=O)(=O)NC2CCN(CCOc3cccc4[nH]ccc34)CC2)c1 [Compound 56, N-[1-[2-(1H-Indol-4-yloxy)ethyl]-4-piperidine]-3-methylbenzene-sulphonamide] | 98 | 74 | 84 | 36 | 106 | 75 | 15 | 34 | – | – | – | – | – | – | –
O=S(=O)(NCC1CN(CCOc2cccc3c2OCCO3)C1)c1ccc(Cl)cc1 [Compound 179, 4-Chloro-N-[[1-[2-(2,3-dihydro-1,4-benzodioxin-5-yloxy)ethyl]azetidin-3-yl]methyl]benzenesulphonamide] | – | 61 | – | – | – | – | – | – | 40 | 57 | -15 | 90 | 92 | -8 | 6
